Measured values reported in US8247211B2, “Glycopeptide antibiotics” (American Cyanamid Company, priority 2001, dated 2012).
≈ marks a conversion by molar mass, not a printed value.

Key:
Experiment in all cases: In vitro antibacterial evaluation: minimum inhibitory concentration (MIC), broth dilution method
Format in all cases: cell-based
Enterococcus sp. = tested on: Enterococcus sp.
Method in brief: (§1)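 NCCLS M7-A2 broth dilution with Mueller-Hinton II, testing 64-0.06 μg/mL antibiotic against 5×10^5 CFU/mL inocula. Test strains include recent methicillin-, penicillin- or vancomycin-resistant clinical isolates. MIC is the lowest concentration preventing growth.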

Escherichia coli = tested on: Escherichia coli
Method in brief: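 An MIC is reported for each organism as the least concentration giving inhibition, using broth dilution over 64-0.06 μg/mL with a 5×10^5 CFU/mL inoculum.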

Staphylococcus sp. = settings: broth dilution, 18 hours at 35° C.
Method in brief: as §1

Streptococcus sp. = tested on: Streptococcus sp.
Method in brief: as §1

[1] = broth dilution, inoculum 5×10^5 CFU/mL, 18 hours at 35° C.

With `CC(=O)n1cc(C2OCC3OC(OC4C(CO)OC(Oc5ccc(CC6NC(=O)C(C(C)c7ccccc7)NC(=O)CNC(=O)C(CO)NC(=O)C(C(O)C7CNC(=N)N7C7OC(CO)C(O)C(O)C7O)NC(=O)C(C(O)C7CNC(=N)N7)NC6=O)cc5)C(O)C4O)C(O)C(O)C3O2)c2ccccc21` (stereo not drawn) [Example 161, Cyclo[glycyl-β-methylphenylalanyl-O-[4-O-[4,6-O-[1-(acetylindol-3-yl)methylene]hexopyranosyl]hexopyranosyl]tyrosyl-3-(2-iminoimidazolidin-4-yl)seryl-3-(3-hexopyranosyl-2-iminoimidazolidin-4-yl)serylseryl]] the “MIC Enterococcus avium (GC 4558)” value (Enterococcus sp.; [1]) was 16 µg/mL (≈ 10.9 µM), the “MIC Enterococcus faecalis (ATCC 29212)” value (Enterococcus sp.; [1]) was 16 µg/mL (≈ 10.9 µM) and the “MIC Enterococcus faecalis (GC 4552)” value (Enterococcus sp.; [1]) was 16 µg/mL (≈ 10.9 µM). The “MIC Enterococcus faecalis (GC 4553)” value (Enterococcus sp.; [1]) was 16 µg/mL (≈ 10.9 µM), the “MIC Enterococcus faecalis (GC 4554)” value (Enterococcus sp.; [1]) was 16 µg/mL (≈ 10.9 µM) and the “MIC Enterococcus faecalis (GC 6189)” value (Enterococcus sp.; [1]) was 16 µg/mL (≈ 10.9 µM). The “MIC Enterococcus faecium (GC 2243)” value (Enterococcus sp.; [1]) was 16 µg/mL (≈ 10.9 µM), the “MIC Enterococcus faecium (GC 4556)” value (Enterococcus sp.; [1]) was 16 µg/mL (≈ 10.9 µM) and the “MIC Enterococcus faecium (GC 4557)” value (Enterococcus sp.; [1]) was 8 µg/mL (≈ 5.46 µM). For the same compound, the “MIC Enterococcus faecalis (ATCC 29212)” value (Enterococcus sp.; strain ATCC 29212) was 16 µg/mL (≈ 10.9 µM), the “MIC Enterococcus faecalis (GC 2242)” value (Enterococcus sp.; strain GC 2242) was 16 µg/mL (≈ 10.9 µM) and the “MIC Enterococcus faecium (GC 2243)” value (Enterococcus sp.; strain GC 2243) was 16 µg/mL (≈ 10.9 µM). For the same compound, the “MIC Enterococcus faecalis (GC 2691)” value (Enterococcus sp.; strain GC 2691) was 16 µg/mL (≈ 10.9 µM), the “MIC Enterococcus faecalis (GC 3059)” value (Enterococcus sp.; strain GC 3059) was 16 µg/mL (≈ 10.9 µM) and the “MIC Enterococcus faecalis (GC 4552)” value (Enterococcus sp.; strain GC 4552) was 16 µg/mL (≈ 10.9 µM). For the same compound, the “MIC Enterococcus faecalis (GC 4553)” value (Enterococcus sp.; strain GC 4553) was 16 µg/mL (≈ 10.9 µM), the “MIC Enterococcus faecalis (GC 4554)” value (Enterococcus sp.; strain GC 4554) was 16 µg/mL (≈ 10.9 µM) and the “MIC Enterococcus faecium (GC 4556)” value (Enterococcus sp.; strain GC 4556) was 16 µg/mL (≈ 10.9 µM). The “MIC Enterococcus faecium (GC 4557)” value (Enterococcus sp.; strain GC 4557) was 8 µg/mL (≈ 5.46 µM), the “MIC Enterococcus avium (GC 4558)” value (Enterococcus sp.; strain GC 4558) was 16 µg/mL (≈ 10.9 µM) and the “MIC Enterococcus faecalis (GC 6189)” value (Enterococcus sp.; strain GC 6189) was 16 µg/mL (≈ 10.9 µM). For the same compound, the “MIC Escherichia coli (ATCC 25922)” value (Escherichia coli; strain ATCC 25922) was greater than 64 µg/mL, the “MIC Escherichia coli (GC 4559)” value (Escherichia coli; strain GC 4559) was greater than 64 µg/mL and the “MIC Escherichi coli (GC 4560)” value (Escherichia coli; strain GC 4560) was 2 µg/mL (≈ 1.37 µM). For the same compound, the “MIC Coagulase Negative Staphylococcus (GC 4547)” value (Staphylococcus sp.; 5×10^5 CFU/mL) was 4 µg/mL (≈ 2.73 µM), the “MIC Coagulase Negative Staphylococcus (GC 4548)” value (Staphylococcus sp.; 5×10^5 CFU/mL) was 2 µg/mL (≈ 1.37 µM) and the “MIC Coagulase Negative Staphylococcus (GC 4549)” value (Staphylococcus sp.; 5×10^5 CFU/mL) was 2 µg/mL (≈ 1.37 µM). The “MIC Coagulase Negative Staphylococcus (GC 4551)” value (Staphylococcus sp.; 5×10^5 CFU/mL) was 8 µg/mL (≈ 5.46 µM), the “MIC Coagulase Negative Staphylococcus (GC 6257)” value (Staphylococcus sp.; 5×10^5 CFU/mL) was 2 µg/mL (≈ 1.37 µM) and the “MIC Staphylococcus aureus (ATCC 29213)” value (Staphylococcus sp.; 5×10^5 CFU/mL) was 4 µg/mL (≈ 2.73 µM). The “MIC Staphylococcus aureus (GC 1131)” value (Staphylococcus sp.; 5×10^5 CFU/mL) was 8 µg/mL (≈ 5.46 µM), the “MIC Staphylococcus aureus (GC 3051)” value (Staphylococcus sp.; 5×10^5 CFU/mL) was 8 µg/mL (≈ 5.46 µM) and the “MIC Staphylococcus aureus (GC 3053)” value (Staphylococcus sp.; 5×10^5 CFU/mL) was 8 µg/mL (≈ 5.46 µM). The “MIC Staphylococcus aureus (GC 4541)” value (Staphylococcus sp.; 5×10^5 CFU/mL) was 4 µg/mL (≈ 2.73 µM), the “MIC Staphylococcus aureus (GC 4542)” value (Staphylococcus sp.; 5×10^5 CFU/mL) was 4 µg/mL (≈ 2.73 µM) and the “MIC Staphylococcus aureus (GC 4544)” value (Staphylococcus sp.; 5×10^5 CFU/mL) was 8 µg/mL (≈ 5.46 µM). The “MIC Staphylococcus aureus (GC 4545)” value (Staphylococcus sp.; 5×10^5 CFU/mL) was 4 µg/mL (≈ 2.73 µM), the “MIC Staphylococcus aureus-SMITH (GC 4543)” value (Staphylococcus sp.; 5×10^5 CFU/mL) was 4 µg/mL (≈ 2.73 µM) and the “MIC Staphylococcus haemolyticus (GC 4546)” value (Staphylococcus sp.; 5×10^5 CFU/mL) was 4 µg/mL (≈ 2.73 µM). For the same compound, the “MIC Staphylococcus aureus (ATCC 29213)” value (Staphylococcus sp.; strain ATCC 29213) was 4 µg/mL (≈ 2.73 µM), the “MIC Staphylococcus aureus (GC 1131)” value (Staphylococcus sp.; strain GC 1131) was 8 µg/mL (≈ 5.46 µM) and the “MIC Staphylococcus aureus (GC 3051)” value (Staphylococcus sp.; strain GC 3051) was 8 µg/mL (≈ 5.46 µM). The “MIC Staphylococcus aureus (GC 3053)” value (Staphylococcus sp.; strain GC 3053) was 8 µg/mL (≈ 5.46 µM), the “MIC Staphylococcus aureus (GC 4541)” value (Staphylococcus sp.; strain GC 4541) was 4 µg/mL (≈ 2.73 µM) and the “MIC Staphylococcus aureus (GC 4542)” value (Staphylococcus sp.; strain GC 4542) was 4 µg/mL (≈ 2.73 µM). The “MIC Staphylococcus aureus-SMITH (GC 4543)” value (Staphylococcus sp.; strain GC 4543) was 4 µg/mL (≈ 2.73 µM), the “MIC Staphylococcus aureus (GC 4544)” value (Staphylococcus sp.; strain GC 4544) was 8 µg/mL (≈ 5.46 µM) and the “MIC Staphylococcus aureus (GC 4545)” value (Staphylococcus sp.; strain GC 4545) was 4 µg/mL (≈ 2.73 µM). The “MIC Staphylococcus haemolyticus (GC 4546)” value (Staphylococcus sp.; strain GC 4546) was 4 µg/mL (≈ 2.73 µM), the “MIC Coagulase Negative Staphylococcus (GC 4547)” value (Staphylococcus sp.; strain GC 4547) was 4 µg/mL (≈ 2.73 µM) and the “MIC Coagulase Negative Staphylococcus (GC 4548)” value (Staphylococcus sp.; strain GC 4548) was 2 µg/mL (≈ 1.37 µM). For the same compound, the “MIC Coagulase Negative Staphylococcus (GC 4549)” value (Staphylococcus sp.; strain GC 4549) was 2 µg/mL (≈ 1.37 µM), the “MIC Coagulase Negative Staphylococcus (GC 4551)” value (Staphylococcus sp.; strain GC 4551) was 8 µg/mL (≈ 5.46 µM) and the “MIC Coagulase Negative Staphylococcus (GC 6257)” value (Staphylococcus sp.; strain GC 6257) was 2 µg/mL (≈ 1.37 µM). For the same compound, the “MIC Streptococcus pneumoniae (ATCC 6301)” value (Streptococcus sp.; strain ATCC 6301) was 0.5 µg/mL (≈ 0.341 µM), the “MIC Streptococcus pneumoniae (GC 1894)” value (Streptococcus sp.; strain GC 1894) was 0.12 µg/mL (≈ 0.0819 µM) and the “MIC Streptococcus pyogenes (GC 4563)” value (Streptococcus sp.; strain GC 4563) was 1 µg/mL (≈ 0.683 µM). The “MIC Streptococcus agalactiae (GC 4564)” value (Streptococcus sp.; strain GC 4564) was 1 µg/mL (≈ 0.683 µM) and the “MIC Streptococcus pneumoniae (GC 4565)” value (Streptococcus sp.; strain GC 4565) was 0.5 µg/mL (≈ 0.341 µM).
